Source: article PMC9158485, “Highly Efficient Biotransformation of Phenolic Glycosides Using a Recombinant β-Glucosidase From White Rot Fungus Trametes trogii” (Frontiers in Microbiology, 2022)

Tested on: T1, TtBgl3
T1 construct: calculated 97 kDa; primer-encoded N-terminus MSRDFL, C-terminus FTWNGV; GH3, GH3_C and Fn3-like domains
Assay: release of 4-nitrophenol at […] nm, Lineweaver-Burk
Assay type: biochemical, Trametes trogii
Conditions: 50°C, pH 5.5 (methods: phosphate citrate buffer 200 mM, pH 5.0, 55°C)

O=[N+]([O-])c1ccc(O[C@@H]2O[C@H](CO)[C@@H](O)[C@H](O)[C@H]2O)cc1 [4-nitrophenyl β-D-glucopyranoside]
Km: 550 µM
